“And” between values parts separate entries of the source, which are not always exact repeats. Identical values can stand only once.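 Tested at 5 concentrations; 48 h exposure; 96-well plates; endpoints linearly interpolated, else capped at highest concentration. GI50 marks 50% less growth. TGI marks complete inhibition of growth.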
Experiments:
Assay in all cases: NCI anticancer screen, dose series, 48 h
SK-MEL-2 melanoma = test system: SK-MEL-2 melanoma
MOLT-4 leukemia = test system: MOLT-4 leukemia
LOX IMVI melanoma = test system: LOX IMVI melanoma
SF-539 CNS = test system: SF-539 CNS
HCT-15 colon = test system: HCT-15 colon
HT29 colon = test system: HT29 colon
SK-MEL-5 melanoma = test system: SK-MEL-5 melanoma
EKVX NSCLC = test system: EKVX NSCLC
HL-60(TB) leukemia = test system: HL-60(TB) leukemia
UO-31 renal = test system: UO-31 renal
U251 CNS = test system: U251 CNS

| SMILES | GI50 (SK-MEL-2 melanoma) [µM] | TGI (SK-MEL-2 melanoma) [µM] | TGI (MOLT-4 leukemia) [µM] | GI50 (LOX IMVI melanoma) [µM] | TGI (LOX IMVI melanoma) [µM] | TGI (SF-539 CNS) [µM] | GI50 (HCT-15 colon) [µM] | TGI (HCT-15 colon) [µM] | TGI (HT29 colon) [µM] | GI50 (SK-MEL-5 melanoma) [µM] | TGI (SK-MEL-5 melanoma) [µM] | GI50 (EKVX NSCLC) [µM] | TGI (EKVX NSCLC) [µM] | GI50 (HL-60(TB) leukemia) [µM] | TGI (HL-60(TB) leukemia) | GI50 (UO-31 renal) [µM] | TGI (UO-31 renal) [µM] | GI50 (U251 CNS) [µM] | TGI (U251 CNS) [µM] |
| --- | --- | --- | --- | --- | --- | --- | --- | --- | --- | --- | --- | --- | --- | --- | --- | --- | --- | --- | --- |
| CCCCCCCCCC[C@@H](O)[C@H]1CC[C@H]([C@H]2CC[C@H]([C@H](O)CCCCCCCCCC[C@@H]3CC(CC(C)=O)C(=O)O3)O2)O1 (stereo partly drawn) | 4.06 | > 50 | > 50 | 0.935 | > 50 | > 50 | 7.21 | > 50 | > 50 | 1.97 | > 21.5 | 1.57 | > 50 | 2.25 | 9.6 µM and > 50 µM | 1.66 | > 50 | 7.12 | > 50 |
| CC1(C)CC2(C)CC1CC2O (stereo not drawn) |  |  | > 100 |  | > 100 | > 100 |  | > 100 | > 100 |  | > 100 |  | > 100 |  | > 100 µM |  | > 100 |  | > 100 |
| CCOC(=O)c1cc(C2(O)CCN(Cc3ccccc3)C2=O)c(-c2cc(C)no2)[nH]1 (stereo not drawn) |  | > 100 | 41.9 |  | > 100 | > 100 |  | > 100 |  |  | > 100 |  | > 100 |  | 34.7 µM |  | > 100 |  | > 100 |
| Nc1nc2ncc(SCc3ccc(C(=O)NC(CCC(=O)O)C(=O)O)cc3)cc2c(=O)[nH]1 (stereo not drawn) |  | > 100 | > 100 |  | > 100 | > 100 |  | > 100 | > 100 |  | > 100 |  | > 100 |  | > 100 µM |  | > 100 |  | > 100 |
| c1cc2nnc1SCCSCCSc1ccc(nn1)SCCSCCS2 |  | > 100 | > 100 |  | > 100 | 96.8 |  | > 100 | > 100 |  | > 100 |  | > 100 |  | > 100 µM |  | > 100 |  | > 100 |
| CCOC(=O)c1cc2c([N+](=O)[O-])c(NC(C)=O)ccc2s1 |  | > 100 | > 100 |  | > 100 | > 100 |  | > 100 | > 100 |  | > 100 |  | 98 |  | > 100 µM |  | > 100 |  | > 100 |
| CCOC(=O)c1c(NC(=O)c2ccccc2)sc2c1CCCC2 |  | > 100 | > 100 |  | > 100 | > 100 |  | > 100 | > 100 |  | > 100 |  | > 100 |  | > 100 µM |  | > 100 |  | > 100 |
| COC(=O)C1(Cc2ccccc2)Cc2cc3c(cc2C1=O)CCC3 (stereo not drawn) |  | 53.1 | 43.1 |  | 79.1 | > 100 |  | > 100 | 36 |  | 33 |  | 86.1 |  | 36.7 µM |  | > 100 |  | > 100 |
| C/C(=N\NC(=S)NC(C)C)c1nc2ncccc2[nH]1 |  | > 77.6 | > 100 |  | > 100 | > 85 |  | > 100 | > 100 |  | > 100 |  | > 69.7 |  | > 100 µM |  | 44.9 |  | > 100 |
| CCOC(=O)CCC(NC(=O)c1ccc(OCc2nc3cc(C(F)(F)F)ccc3nc2-c2ccccc2)cc1)C(=O)OCC (stereo not drawn) |  | 54.1 | > 100 |  | > 100 | > 100 |  | > 100 | > 100 |  | 60.4 |  | > 100 |  | > 100 µM |  | > 100 |  | > 100 |
| O=c1[nH]cnc2c(C3OC(CO)C(O)C3O)c[nH]c12 (stereo not drawn) |  |  | > 100 |  | > 100 | > 100 |  |  | > 100 |  | > 100 |  | > 100 |  | > 100 µM |  | > 100 |  | > 100 |
| CC[C@@H]1CC[C@@H]2[C@H](CC[C@]3(C)[C@@H](O)CC[C@@H]23)[C@H]1C(=O)O |  | > 100 | > 100 |  | > 100 | > 100 |  | > 100 | > 100 |  | > 100 |  | > 100 |  | > 100 µM |  | > 100 |  | > 100 |
| COC1O[C@H]2CCN(C(=O)OCc3ccccc3)[C@H]2[C@H]1OCc1ccccc1 (stereo partly drawn) |  | > 100 | > 100 |  | > 100 | > 100 |  | > 100 | > 100 |  | 64.6 |  | > 100 |  | 68.6 µM |  | 97.7 |  | > 100 |
| CC12CC(c3ccccc3O1)C(C(=O)Nc1ccc(F)cc1)C(=O)N2 (stereo not drawn) |  | > 100 | 76.5 |  | > 100 | > 100 |  | > 100 | > 100 |  | > 100 |  | > 100 |  | > 100 µM |  | > 100 |  | > 100 |
| Cc1c(Cl)ccc2c(=O)c3cccc(CC(=O)O)c3oc12 |  | > 100 | > 100 |  | > 100 | > 100 |  | > 100 | > 100 |  | > 100 |  | > 100 |  | > 100 µM |  | > 100 |  | > 100 |
| Clc1nc(Cl)nc(NC23CC4CC(CC(C4)C2)C3)n1 |  | > 41.8 | 51.2 |  | 26.9 | 35 |  | 31.7 | 37.9 |  | 26.6 |  | 37.4 |  | 16.5 µM |  | 23.5 |  | 30.5 |
| O=C1O[C@@H](c2ccccc2)C[C@@H]1CN1CCOCC1 |  | > 100 | > 100 |  | > 100 | > 100 |  | > 100 | > 100 |  | > 100 |  | > 100 |  | > 100 µM |  | > 100 |  | > 100 |
| O=C1CCCN(c2ccccc2)N1 |  | > 100 | > 100 |  | > 100 | > 100 |  | > 100 | > 100 |  | > 100 |  | > 100 |  | > 100 µM |  | > 100 |  | > 100 |
| Cc1c(Cl)cccc1NC(=O)C(=O)C1C(=O)CC(C)(C)CC1=O |  | > 100 | > 100 |  | > 100 | > 100 |  | > 100 | > 100 |  | > 100 |  | > 100 |  | > 100 µM |  | > 100 |  | > 100 |
